# Measurements reported in patent US9527842B2, “Inhibitors of human immunodeficiency virus replication” (priority 2013, dated 2016).
# Like-named read-outs stand apart in the source and are kept apart here.
# Legend:
# [1] = rcm bond, Hoveyda-Grubbs II, DCE
# [2] = rcm bond, Hoveyda-Grubbs II, then NaOH, DCE
structure (smiles),measurement,setting,value
COC(=O)[C@@H](OC(C)(C)C)c1c(C)cn2nc3cc2c1N1CCC(C)(CC1)OCC=CC[C@H](C)Oc1ccc(C#N)cc1-c1cccc-3c1,"ring closure, isolated yield","[1]; from C=CCOC1(C)CCN(c2c([C@H](OC(C)(C)C)C(=O)OC)c(C)cn3nc(-c4cccc(-c5cc(C#N)ccc5O[C@@H](C)CC=C)c4)cc23)CC1, 20-membered ring, 1.51 mM, 85.0 °C, 2.0 h",82%
COC(=O)[C@@H](OC(C)(C)C)c1c(C)cn2nc3cc2c1N1CCC(C)(CC1)OCC=CCOc1ccccc1CC(O)CNC3=O (stereo partly shown),"ring closure, isolated yield","[1]; from C=CCOc1ccccc1CC(O)CNC(=O)c1cc2c(N3CCC(C)(OCC=C)CC3)c([C@H](OC(C)(C)C)C(=O)OC)c(C)cn2n1, 21-membered ring, 1.81 mM, 70.0 °C, 3.0 h",58%
COC(=O)[C@@H](OC(C)(C)C)c1c(C)cn2nc3cc2c1N1CCC(C)(CC1)OCC=CC(C)COc1ccc(C)cc1-c1cccc-3c1 (stereo partly shown),"ring closure, isolated yield","[1]; from C=CCOC1(C)CCN(c2c([C@H](OC(C)(C)C)C(=O)OC)c(C)cn3nc(-c4cccc(-c5cc(C)ccc5OCC(C)C=C)c4)cc23)CC1, 20-membered ring, 2.13 mM, 85.0 °C, 2.0 h",82%
COC(=O)[C@@H](OC(C)(C)C)c1c(C)cn2nc3cc2c1N1CCC(C)(CCC=CCOc2cc(F)ccc2CNC3=O)CC1,"ring closure, yield after HPLC","[2]; from C=CCCC1(C)CCN(c2c([C@H](OC(C)(C)C)C(=O)OC)c(C)cn3nc(C(=O)NCc4ccc(F)cc4OCC=C)cc23)CC1, 19-membered ring, 1.57 mM, 70.0 °C, 2.0 h, 2 steps",53.5%
COC(=O)[C@@H](OC(C)(C)C)c1c(C)cn2nc3cc2c1N1CCC(C)(CC1)OCC=CC[C@H](C)Oc1cccc(F)c1-c1cccc-3c1,"ring closure, yield after HPLC","[2]; from C=CCOC1(C)CCN(c2c([C@H](OC(C)(C)C)C(=O)OC)c(C)cn3nc(-c4cccc(-c5c(F)cccc5O[C@@H](C)CC=C)c4)cc23)CC1, 20-membered ring, then H2, Pd/C, 2.0 mM, 85.0 °C, 2.0 h, 3 steps",19.6%
COC(=O)[C@@H](OC(C)(C)C)c1c(C)cn2nc3cc2c1N1CCC(C)(CC1)OCC=CCC[C@H](C)Oc1ccc(C)cc1-c1cccc-3c1,"ring closure, yield after HPLC","[2]; from C=CCC[C@H](C)Oc1ccc(C)cc1-c1cccc(-c2cc3c(N4CCC(C)(OCC=C)CC4)c([C@H](OC(C)(C)C)C(=O)OC)c(C)cn3n2)c1, 21-membered ring, then H2, Pd/C, 1.86 mM, 85.0 °C, 3.0 h, 3 steps",40.6%
COC(=O)[C@@H](OC(C)(C)C)c1c(C)cn2nc3cc2c1N1CCC(C)(CC1)OCC=CC[C@H](C)Oc1cc(F)ccc1-c1cccc-3c1,"ring closure, yield after HPLC","[2]; from C=CCOC1(C)CCN(c2c([C@H](OC(C)(C)C)C(=O)OC)c(C)cn3nc(-c4cccc(-c5ccc(F)cc5O[C@@H](C)CC=C)c4)cc23)CC1, 20-membered ring, then H2, Pd/C, 1.57 mM, 85.0 °C, 2.0 h, 3 steps",49.8%
